From ChEMBL document CHEMBL4425168, “Dehydrozingerone Inspired Styryl Hydrazine Thiazole Hybrids as Promising Class of Antimycobacterial Agents” (ACS Med Chem Lett, 2016) come the findings set out here.

Structures are written as SMILES. Converted amounts (≈) assume the structure as drawn.

Assay [1] relates to Mycobacterium tuberculosis. Nature of the assay: Antitubercular activity against Mycobacterium tuberculosis H37Rv after 7 days by broth macrodilution assay. Type of assay: functional. The conditions noted are these: 168 h.
For assay [2], the system named is Mycobacterium tuberculosis. Nature of the assay: Antitubercular activity against Mycobacterium tuberculosis H37Rv by microplate Alamar blue assay. Type of assay: functional.
For assay [3], the system named is Mycobacterium tuberculosis. Nature of the assay: Antitubercular activity against Mycobacterium tuberculosis H37Rv assessed as bacterial growth inhibition in aerobic conditions by dual read out fluorescence assay. Type of assay: functional.
In assay [4] the test system is Mycobacterium tuberculosis. The experiment in a line: Antitubercular activity against Mycobacterium tuberculosis H37Rv assessed as bacterial growth inhibition under aerobic conditions after 5 days by dual read-out fluorescence assay. Type of assay: functional, organism-based. The conditions noted are these: 120 h.
The next assay has as its system Mycobacterium avium. Nature of the assay: Antibacterial activity against Mycobacterium avium assessed as reduction in bacterial metabolic activity after 5 days by Alamar blue assay. It counts as functional. As to conditions: 120 h.
Assay [5] relates to Mycobacterium tuberculosis. Nature of the assay: Antitubercular activity against Mycobacterium tuberculosis H37Rv expressing luxABCDE infected in differentiated human THP1 cells assessed as reduction in bacteria infected cells after 72 hrs by luminescence assay. The conditions noted are these: THP-1, 72 h. It counts as functional, organism-based.
Assay [6] deals with Mycobacterium tuberculosis. Nature of the assay: Antitubercular activity against Mycobacterium tuberculosis H37Rv RIF-R2 ATCC 35828 after 5 days. Type of assay: functional, organism-based. The conditions noted are these: H37Rv RIF-R2 ATCC 35828, 120 h.
The subject of assay [7] is Mycobacterium tuberculosis. The experiment in a line: Antitubercular activity against oxygen-deprived Mycobacterium tuberculosis H37Rv assessed as bacterial growth inhibition preincubated for 10 days under anaerobic conditions followed by incubation under aerobic conditions for 28 hrs by LOR assay. It counts as functional, organism-based.
For assay [8], the system named is Mycobacterium tuberculosis. Nature of the assay: Bactericidal activity against replicating Mycobacterium tuberculosis H37Rv assessed as reduction in colony forming units incubated for 21 days. It counts as functional. The conditions noted are these: 504 h.
In assay [9] the test system is Mycobacterium tuberculosis. The experiment in a line: Antitubercular activity against Mycobacterium tuberculosis H37Rv INH-R2 ATCC 35822 after 5 days. Type of assay: functional, organism-based.
A further assay concerns THP-1. The experiment in a line: Cytotoxicity in differentiated human THP1 cells assessed as reduction in cell viability after 3 days by CellTiter-Glo assay. As to conditions: THP-1, 72 h. Type of assay: cell-based.
In assay [10] the test system is Mycobacterium tuberculosis. The experiment in a line: Antitubercular activity against oxygen-deprived Mycobacterium tuberculosis H37Rv assessed as bacterial growth inhibition incubated for 5 days under aerobic conditions by LOR assay. Type of assay: functional, organism-based. As to conditions: 120 h.
The subject of assay [11] is Mycobacteroides abscessus. Nature of the assay: Antibacterial activity against Mycobacterium abscessus assessed as bacterial growth inhibition after 3 days by MABA method. The conditions noted are these: 72 h. It counts as functional.
The subject of assay [12] is Mycobacterium tuberculosis. The experiment in a line: Antitubercular activity against Mycobacterium tuberculosis H37Rv by radiometric assay. It counts as functional.
Setting [13] is: Mycobacterium tuberculosis, H37Rv INH-R2 ATCC 35822, 120 h.

The compound `COC(=O)c1nc(N)sc1Cc1ccccc1` came in with an MIC in assay [1] of 0.06 µg/mL (≈ 0.242 µM).
For `CC(=O)c1nc(/C=C/c2ccccc2)c2ncn(Cc3ccccc3)c2n1`, in assay [2], the MIC came out at 6.25 µM (≈ 2.22 µg/mL).
`COc1ccc(-c2csc(N/N=C/c3ccc4c(c3)c3ccccc3n4C)n2)cc1OC`: the MIC in [3] was 21 µM (≈ 9.29 µg/mL).
On to `COc1ccc(/C=C/C(C)=N/Nc2nc(-c3cc(F)ccc3O)cs2)cc1OC`, for which the MIC in assay [4] was 1.5 to 200 µM (≈ 0.62 to 82.7 µg/mL).
For `COc1ccc(/C=C/C(C)=N/Nc2nc(-c3ccc(N)cc3)cs2)cc1OC`, the MIC in the assay with Mycobacterium avium was 100 µM (≈ 39.5 µg/mL); in assay [6], 6.3 µM (≈ 2.49 µg/mL); in assay [7], 46 µM (≈ 18.1 µg/mL); in assay [9] (setting [13]), 1.5 µM (≈ 0.592 µg/mL); in assay [4], 1.5 to 200 µM (≈ 0.592 to 78.9 µg/mL); in assay [10] it was 0.28 µM (≈ 0.11 µg/mL). The IC50 in [5] is < 0.098 µM; in assay [6] it was 0.76 µM; in assay [7], 0.063 µM; in assay [9] (setting [13]) it was 0.38 µM; in the assay with THP-1, 11 µM; in assay [10], 0.097 µM. Also, the IC90 in [6] stood at 9.2 µM; in assay [9] (setting [13]) it was 1.7 µM. For the same compound, the MBC in [8] is 12 µM (≈ 4.73 µg/mL).
On to `COc1ccc(/C=C/C(C)=N/Nc2nc(-c3ccc(C)cc3)cs2)cc1OC`, for which, in assay [4], the minimum inhibitory concentration (MIC) fell in the range of 1.5 to 200 µM (≈ 0.59 to 78.7 µg/mL).
Still for that read-out and setting: in the case of `COc1ccc(/C=C/C(C)=N/Nc2nc(-c3ccc(Cl)c(Cl)c3)cs2)cc1OC` it was > 200 µM.
On the same count and under the same terms, then `COc1ccc(/C=C/C(C)=N/Nc2nc(-c3cccc(C(F)(F)F)c3)cs2)cc1OC`, with > 200 µM.
Regarding `COc1ccc(/C=C/C(C)=N/NC(N)=S)cc1OC`, the MIC in the assay with Mycobacterium avium was > 200 µM; in [6], 4.8 µM (≈ 1.34 µg/mL); in assay [7], 29 µM (≈ 8.1 µg/mL); in assay [11] it was > 200 µM; in [9] (setting [13]), 2.5 µM (≈ 0.698 µg/mL); in assay [4], 1.5 to 200 µM (≈ 0.419 to 55.9 µg/mL). The MIC in assay [10] was found to be 0.5 µM (≈ 0.14 µg/mL). The IC50 in assay [5] is < 0.098 µM; in [6], 1.2 µM; in assay [7] it was 0.19 µM; in assay [9] (setting [13]) it was 0.79 µM; with THP-1, 11 to 50 µM; in assay [4] it was 0.98 µM. For the same compound, in [10], the IC50 was determined as 0.15 µM. Also, the IC90 in assay [6] is 5.9 µM; in assay [9] (setting [13]) it was 2.9 µM. Besides, in [8], the MBC was found to be 6 µM (≈ 1.68 µg/mL).
For `COc1ccc(/C=C/C(C)=N/Nc2nc(-c3ccc(OC)c(OC)c3)cs2)cc1OC`, the MIC was > 200 µM with Mycobacterium avium; 46 µM (≈ 20.2 µg/mL) in assay [6]; > 200 µM in assay [11]; 13 µM (≈ 5.71 µg/mL) in assay [9] (setting [13]); 16 µM (≈ 7.03 µg/mL) in assay [4]. Besides, the IC50 in assay [6] amounted to 19 µM; in assay [9] (setting [13]), 7.1 µM; in the assay with THP-1 it was 38 µM; in [4], 7.4 µM. The IC90 in assay [6] is > 200 µM; in assay [9] (setting [13]) it was 12 µM.
For the compound `COc1ccc(-c2csc(N/N=C(C)/C=C/c3ccc(OC)c(OC)c3)n2)cc1`, the MIC in the assay with Mycobacterium avium is > 200 µM; in [6], 31 µM (≈ 12.7 µg/mL); in assay [11] it was > 200 µM; in [9] (setting [13]), 12 µM (≈ 4.91 µg/mL); in [4], 15 µM (≈ 6.14 µg/mL). Further, the IC50 in assay [6] is 8.7 µM; in [9] (setting [13]), 8 µM; in the assay with THP-1, 11 to 50 µM; in [4] it was 8.4 µM. Moreover, the IC90 in assay [6] and in assay [9] (setting [13]) was > 50 µM in each case.
Turning to `COc1ccc(/C=C/C(C)=N/Nc2nc(-c3ccccc3O)cs2)cc1OC`, in assay [4], the IC50 came out at 24 µM and the MIC is 40 µM (≈ 15.8 µg/mL).
Consider `COc1ccc(/C=C/C(C)=N/Nc2nc(-c3ccccc3)cs2)cc1OC`, for which the MIC in [4] was in the range of 1.5 to 200 µM (≈ 0.569 to 75.9 µg/mL).
As for `COc1ccc(/C=C/C(C)=N/Nc2nc(-c3c(OC)cccc3OC)cs2)cc1OC`, the MIC in the assay on Mycobacterium avium was > 100 µM; in assay [6] it was 41 µM (≈ 18 µg/mL); in [11], > 100 µM; in assay [9] (setting [13]), 19 µM (≈ 8.35 µg/mL); in assay [4], 28 µM (≈ 12.3 µg/mL). Besides, the IC50 in [6] was 10 µM; in assay [9] (setting [13]), 5.6 µM; with THP-1 it was 11 to 50 µM; in [4], 6.6 µM. The IC90 in assay [6] and in [9] (setting [13]) was > 25 µM in each case.
`O=[N+]([O-])c1ccc2nc(-c3ccccc3-c3nnc(/C=C/c4ccccc4)o3)[nH]c2c1` registered an MIC in assay [12] of 12.5 µg/mL (≈ 30.5 µM).
As to `COc1ccc(/C=C/C(C)=N/Nc2nc(-c3ccc(Br)cc3)cs2)cc1OC`, in assay [4], the MIC was > 200 µM.
As to `COc1ccc(/C=C/C(C)=N/Nc2nc(-c3ccc([N+](=O)[O-])cc3)cs2)cc1OC`, the MIC in [4] is > 200 µM.
Turning to `COc1ccc(O)c(-c2csc(N/N=C(C)/C=C/c3ccc(OC)c(OC)c3)n2)c1`, in assay [4], the IC50 was found to be 23 µM and the MIC came to 88 µM (≈ 37.4 µg/mL).
Take `COc1ccc(/C=C/C(C)=N/Nc2nc(-c3cc(Br)ccc3O)cs2)cc1OC`: the MIC in [4] lay within 1.5 to 200 µM (≈ 0.712 to 94.9 µg/mL).
Same read-out and setting: in the case of `COc1ccc(/C=C/C(C)=N/Nc2nc(-c3ccc(Cl)cc3)cs2)cc1OC` it was 1.5 to 200 µM (≈ 0.621 to 82.8 µg/mL).
As to `NNC(=O)c1ccncc1` [ISONIAZID], in assay [6], the IC50 came out at 0.54 µM, the IC90 came out at 0.6 µM and the MIC came to 0.62 µM (≈ 0.085 µg/mL). In addition, in [9] (setting [13]), the IC50 was > 200 µM, the IC90 was > 200 µM and the MIC is > 200 µM.
As for `C[C@H]1COc2c(N3CCN(C)CC3)c(F)cc3c(=O)c(C(=O)O)cn1c23.C[C@H]1COc2c(N3CCN(C)CC3)c(F)cc3c(=O)c(C(=O)O)cn1c23.O` [LEVOFLOXACIN], in [6], the IC50 is 0.6 µM, the IC90 was 1.2 µM and the MIC is 1.1 µM. In assay [9] (setting [13]), the IC50 was 0.84 µM, the IC90 stood at 1.4 µM and 1.4 µM was the least that counted as inhibitory (MIC).
Take `CO[C@H]1/C=C/O[C@@]2(C)Oc3c(C)c(O)c4c(O)c(c(/C=N/N5CCN(C)CC5)c(O)c4c3C2=O)NC(=O)/C(C)=C\C=C\[C@H](C)[C@H](O)[C@@H](C)[C@@H](O)[C@@H](C)[C@H](OC(C)=O)[C@@H]1C` [RIFAMPIN]: the minimum inhibitory concentration (MIC) was 0.1 µM (≈ 0.0823 µg/mL) with Mycobacterium avium, > 50 µM in [6], 0.0065 µM (≈ 0.00535 µg/mL) in assay [9] (setting [13]) and 1.5 to 200 µM (≈ 1.23 to 165 µg/mL) in [4]. Also, the IC50 in assay [6] is > 50 µM; in assay [9] (setting [13]), 0.0047 µM. Besides, the values for the IC90 in assay [6] and in assay [9] were > 50 µM and 0.012 µM, respectively.
